According to patent US20240002343A1, “COMPOUNDS HAVING INHIBITORY EFFECT ON MITOCHONDRIAL HYPERFISSION” (KYUSHU UNIVERSITY, NATIONAL UNIVERSITY CORPORATION, priority 2020, published 2024):

Assays:
[1] = tested on: cardiomyocytes derived from neonatal rats; experiment: Inhibitory effect on mitochondrial hyperfission by hypoxic stimulation; assay type: cell-based, rat; details: 0.3 μM, 1 hour preincubation, 18 hours hypoxic environment; compared with cilnidipine positive control
Method: A system for evaluating quantitatively the degree of mitochondrial division in cells was constructed. Specifically, cardiomyocytes derived from neonatal rats were cultured under either normoxia (20%) or hypoxia (1%) for 16 hours. Subsequently, the cells were stained with a fluorescent dye (MitoTracker Green FM, Thermo Fisher Scientific) that selectively stains mitochondria. Then, the mitochondria were observed under a fluorescence microscope, and the mitochondrial morphology was quantitatively measured by image analysis.
FIGS. 2(a) and (b) are each a micrograph and an image explaining a method for quantitatively measuring mitochondrial morphology by image analysis. FIG. 2(a) is a representative fluorescence micrograph showing the general morphology of mitochondria. FIG. 2(b) is an image obtained by filtering the photograph in FIG. 2(a) and extracting the shape of the mitochondria. Image analysis was performed based on the image in FIG. 2(b) to quantify the lengths of mitochondrial fragments. For the quantification, in order to classify the mitochondria into vesicle-shaped, intermediate-shaped and tube-shaped, <3.5 μm is set for vesicle-shaped, 3.6 μm<length<4.2 μm is set for intermediate-shaped, and >4.2 μm is set for tube-shaped, respectively, as thresholds.
The system for evaluation constructed in Test Example 1 was used to evaluate the mitochondrial hyperfission inhibitory effects of the compounds prepared in Examples.
Specifically, at first, each compound was added to the culture medium of cardiomyocytes derived from neonatal rats at a final concentration of 0.3 μM, and the mixture was incubated for 1 hour.
Then, each cells were cultured for an additional 18 hours in a hypoxic environment. Subsequently, mitochondria were stained with MitoTracker Green FM (Thermo Fisher Scientific) or anti-pyruvate dehydrogenase antibody (Abcam) and observed under a fluorescence microscope to quantitatively measure the morphology of mitochondria. For comparison, a group involving cilnidipine as a positive control and a group involving dimethyl sulfoxide (DMSO) as a negative control were also prepared.

calcium channel = experiment: Calcium antagonism (KCl-induced calcium ion influx, Fura 2-AM); assay type: cell-based, mouse; details: Neuro-2a cells; 0, 1, 10, 100 and 1,000 nM, 30 minutes; potassium chloride 60 mM
Method: The compounds prepared in Examples were evaluated for calcium channel blocking activity. Specifically, at first, Neuro-2a cells, mouse-derived neuroblastoma cell line, were cultured in a serum-free medium, and Fura 2-AM (Dojindo Laboratories) that is a calcium ion probe, was added to the medium so that it was taken up by the cells.
Subsequently, after replacing the medium with HEPES buffer (pH 7.4), each compound was each added at final concentrations of 0, 1, 10, 100 and 1,000 nM and the mixtures were incubated for 30 minutes.
Then, depolarization stimulation was applied with potassium chloride (final concentration 60 mM), and the influx of calcium ions into the cells was measured by fluorescence microscopy.
FIGS. 4(a) and (b) are graphs that illustrate the results of measurement of increase in intracellular calcium ion concentration induced by potassium chloride stimulation. Δratio on the vertical axis is expressed by formula (F1) below and represents a value that reflects the intracellular calcium ion concentration.
A ratio=(fluorescence intensity at fluorescence wavelength of 510 nm against an excitation wavelength of 340 nm)/(fluorescence intensity at fluorescence wavelength of 510 nm against an excitation wavelength of 380 nm) Formula (F1)

[2] = tested on: cardiomyocytes derived from neonatal rats; experiment: Inhibitory effect on aging of cardiomyocytes under hypoxic stimulation (β-galactosidase, SPiDER-βGAL); assay type: cell-based, rat; details: 1 μM, 1 hour preincubation, 16 hours normoxia (20%) or hypoxia (1%); compared with cilnidipine
Method: The compounds prepared in Examples were investigated for effects on the aging of cardiomyocytes. The aging of cardiomyocytes was evaluated by detecting β-galactosidase, one of the aging markers.
Specifically, DOJINDO's cell aging detection kit-SPiDER-βGAL was used for detection according to the attached protocol. Each compound was added to the culture medium of cardiomyocytes derived from neonatal rats at a final concentration of 1 μM and the medium were incubated for 1 hour. Then, the medium was cultured for 16 hours under normoxia (20%) or hypoxia (1%). Subsequently, Bafilomycin A1, which inhibits endogenous β-galactosidase activity, was added and the medium was incubated for 1 hour. After washing the cells with a medium, SPiDER-βGAL was added thereto and the mixture was incubated for 30 minutes. After removing the supernatant, HEPES buffer (pH 7.4) was added thereto and the cells were observed under a fluorescence microscope to detect β-galactosidase in the aging cells. For comparison, a group involving cilnidipine as a positive control and a group involving dimethylsulfoxide (DMSO) as a negative control were prepared.
Arrowheads indicate the β-galactosidase-positive cells.

Drp1-filamin complex = details: Non-Patent Document 6; cited from earlier work

Row | SMILES | mitochondrial hyperfission inhibitory effect (percentage of cells with vesicle-shaped mitochondria) [1] | Ca2+ antagonism (increase in intracellular calcium ion concentration induced by potassium chloride stimulation) (calcium channel) | suppressive effect on aging (β-galactosidase-positive cells) [2] | inhibition of formation of the Drp1-filamin complex (Drp1-filamin complex)
1 | COCCOC(=O)C1=C(C)NC(C)=C(C(=O)Nc2cccc(C(=O)OCCC#N)c2)C1c1ccccc1 (stereo not drawn) [Compound 30, 2-Methoxyethyl 5-((3-((2-cyanoethoxy)carbonyl)phenyl)carbamoyl)-2,6-dimethyl-4-phenyl-1,4-dihydropyridine-3-carboxylate] | the same as or more effect of cilnidipine |  |  | 
2 | COCCOC(=O)c1c(C)nc(C)c(C(=O)NCCCc2ccncc2)c1-c1ccccc1[N+](=O)[O-] [Compound 4f, 2-Methoxyethyl 2,6-dimethyl-4-(2-nitrophenyl)-5-((3-(pyridin-4-yl)propyl)carbamoyl)nicotinate] | the same as or more effect of cilnidipine | no Ca2+ antagonism | suppressive effect on aging that is the same as cilnidipine | 
3 | COCCOC(=O)c1c(C)nc(C)c(C(=O)Nc2cccc(C(=O)O)c2)c1-c1ccccc1 [Compound 25, 3-(5-((2-methoxyethoxy)carbonyl)-2,6-dimethyl-4-phenylnicotinamido)benzoic acid] | the same as or more effect of cilnidipine |  |  | 
4 | COCCOC(=O)C1=C(C)NC(C)=C(C(=O)OCCC#N)C1c1cccc([N+](=O)[O-])c1 (stereo not drawn) [Compound 18, 3-(2-cyanoethyl) 5-(2-methoxyethyl) 2,6-dimethyl-4-(3-nitrophenyl)-1,4-dihydropyridine-3,5-dicarboxylate] | the same as or more effect of cilnidipine | no Ca2+ antagonism |  | 
5 | COCCOC(=O)c1c(C)nc(C)c2c(=O)n(Cc3ccccc3)c3ccccc3c12 [Compound 10b, 2-Methoxyethyl 6-benzyl-2,4-dimethyl-5-oxo-5,6-dihydrobenzo[c][2,7]naphthyridine-1-carboxylate] | the same as or more effect of cilnidipine |  |  | 
6 | COCCOC(=O)c1c(C)nc(C)c2c(=O)n(C)c3ccccc3c12 [Compound 10a, 2-Methoxyethyl 2,4,6-trimethyl-5-oxo-5,6-dihydrobenzo[c][2,7]naphthyridine-1-carboxylate] | the same as or more effect of cilnidipine |  |  | 
7 | COCCOC(=O)c1c(C)nc(C)c(C(=O)O)c1-c1ccccc1[N+](=O)[O-] [Compound 6, 5-((2-methoxyethoxy)carbonyl)-2,6-dimethyl-4-(2-nitrophenyl)nicotinic acid] | the same as or more effect of cilnidipine | no Ca2+ antagonism |  | 
8 | COCCOC(=O)c1c(C)nc(C)c2c(=O)n(-c3cccc(OC)c3)c3ccccc3c12 [Compound 17a, 2-Methoxyethyl 6-(3-methoxyphenyl)-2,4-dimethyl-5-oxo-5,6-dihydrobenzo[c][2,7]naphthyridine-1-carboxylate] | the same as or more effect of cilnidipine | no Ca2+ antagonism |  | 
9 | COCCOC(=O)C1=C(C)NC(C)=C(C(=O)O)C1c1ccccc1[N+](=O)[O-] (stereo not drawn) [Compound 2, 5-((2-methoxyethoxy)carbonyl)-2,6-dimethyl-4-(2-nitrophenyl)-1,4-dihydropyridine-3-carboxylic acid] | the same as or more effect of cilnidipine | no Ca2+ antagonism | suppressive effect on aging that is the same as cilnidipine | 
10 | COCCOC(=O)C1=C(C)NC(C)=C(C(=O)NCc2ccccc2)C1c1cccc([N+](=O)[O-])c1 (stereo not drawn) [Compound 20a, 2-Methoxyethyl 5-(benzylcarbamoyl)-2,6-dimethyl-4-(3-nitrophenyl)-1,4-dihydropyridine-3-carboxylate] | the same as or more effect of cilnidipine | no Ca2+ antagonism |  | 
11 | COCCOC(=O)C1=C(C)NC(C)=C(C(=O)Nc2ccc(OC)cc2)C1c1ccccc1 (stereo not drawn) [Compound 16b, 2-Methoxyethyl 5-((4-methoxyphenyl)carbamoyl)-2,6-dimethyl-4-phenyl-1,4-dihydropyridine-3-carboxylate] | the same as or more effect of cilnidipine | no Ca2+ antagonism |  | 
12 | COCCOC(=O)C1=C(C)NC(C)=C(C(=O)Nc2cccc(C(=O)O)c2)C1c1ccccc1 (stereo not drawn) [Compound 31, 3-(5-((2-methoxyethoxy)carbonyl)-2,6-dimethyl-4-phenyl-1,4-dihydropyridine-3-carboxamido)benzoic acid] | the same as or more effect of cilnidipine |  |  | 
13 | COCCOC(=O)c1c(C)nc(C)c(C(=O)Nc2cccc(C(=O)OC(C)(C)C)c2)c1-c1ccccc1 [Compound 24, 2-Methoxyethoxy 5-((3-(tert-butoxycarbonylcarbonyl)phenyl)carbamoyl)-2,6-dimethyl-4-phenylnicotinate] | the same as or more effect of cilnidipine |  |  | 
14 | Cc1nc(C)c2c(=O)[nH]c3ccccc3c2c1C(=O)O [Compound 14, 2,4-dimethyl-5-oxo-5,6-dihydrobenzo[c][2,7]naphthyridine-1-carboxylic acid] | the same as or more effect of cilnidipine | no Ca2+ antagonism |  | 
15 | COCCOC(=O)C1=C(C)NC(C)=C(C(=O)OC/C=C/c2ccccc2)C1c1cccc([N+](=O)[O-])c1 (stereo not drawn) [Cilnidipine] |  |  |  | inhibit formation of the Drp1-filamin complex
16 | COCCOC(=O)c1c(C)nc(C)c2c(=O)n(-c3cccc(C(=O)OC(C)(C)C)c3)c3ccccc3c12 [Compound 17c, 2-Methoxyethyl 6-(3-(tert-butoxycarbonyl)phenyl)-2,4-dimethyl-5-oxo-5,6-dihydrobenzo[c][2,7]naphthyridine-1-carboxylate] | the same as or more effect of cilnidipine |  |  | 
17 | COCCOC(=O)c1c(C)nc(C)c(C(=O)Nc2cccc(C(=O)OC)c2)c1-c1ccccc1 [Compound 26, 2-Methoxyethoxy 5-((3-(methoxycarbonyl)phenyl)carbamoyl)-2,6-dimethyl-4-phenylnicotinate] | the same as or more effect of cilnidipine |  |  | 
